Key:
GLP1R [1] = target: T1, GLP1R (Homo sapiens, UniProt P43220); assay: GLP1R cAMP assay (HTRF cAMP detection, agonist activity); type: cell-based; design: host or cells: Flp-In-293; details: Flp-In-293-GLP1R cells, 30 min at 37° C., read-out: EC50 (nM) Assay 1
Method: GLP1R-mediated agonist activity was determined with a cell-based functional assay utilizing an HTRF (Homogeneous Time-Resolved Fluorescene) cAMP detection kit that measures CAMP levels in the cell. Reagents and equipment used in the assay are listed below, followed by the protocol.
• 1) Cell Line: Flp-In-293-GLP1R (constructed by Pharmaron Beijing Co., Ltd) • 2) Complete Medium: DMEM+10% FBS+1×Penicillin-Streptomycin+200 μg/mL HB • 3) Assay Buffer: 1×HBSS+20 mM HEPES+0.1% BSA+500 μM IBMX
• a) Seed Flpin-293-GLP1R cells at 20,000 cells/well into 384 well assay plate (6007680-50, PE) using complete medium. • b) Prepare 4×compound working solution with assay buffer. • c) Add 5 μL 4×compound working solution into cell plate, incubate 30 min at 37° C. • d) Dilute Eu-cAMP tracer (1/50) with lysis buffer and add 10 μl/well to assay plate. • e) Dilute Ulight-anti-cAMP (1/150) with lysis buffer and add 10 μl/well to assay plate. • f) Incubate 1 h at RT. • g) Read the plate at wavelengths of 665 nm and 615 nm on Envision 2105 plate reader.
(§1) • 3.1% Activity is calculated as follow:
% Activity=100−(Signalcmpd−SignalAve_PC)/(SignalAve_VC−SignalAve_PC)×100. • 3.2 Calculate EC50 and Plot effect-dose curve of cmpds:
Y=Bottom+(Top−Bottom)/(1+10^((Log EC50−X)*Hill Slope)) • X: log of agonist concentration; Y: % Activity.
Target sequence in this assay (P43220 24-463, species assumed): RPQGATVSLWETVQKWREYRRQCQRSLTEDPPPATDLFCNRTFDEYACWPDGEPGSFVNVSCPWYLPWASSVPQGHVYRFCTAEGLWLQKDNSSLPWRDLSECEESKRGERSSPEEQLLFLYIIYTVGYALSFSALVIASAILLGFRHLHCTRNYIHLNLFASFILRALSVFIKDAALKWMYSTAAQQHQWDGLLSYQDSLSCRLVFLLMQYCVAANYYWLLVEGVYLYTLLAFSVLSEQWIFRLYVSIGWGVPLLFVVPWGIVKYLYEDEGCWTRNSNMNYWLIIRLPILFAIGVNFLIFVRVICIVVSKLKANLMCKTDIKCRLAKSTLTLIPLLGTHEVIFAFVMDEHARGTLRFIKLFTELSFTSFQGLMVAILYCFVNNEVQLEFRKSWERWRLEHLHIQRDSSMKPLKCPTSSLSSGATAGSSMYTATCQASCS

GLP1R [2] = target: T1, GLP1R; assay: GLP1R/CRE-Luc luciferase reporter gene assay (agonist activity); type: cell-based; design: host or cells: HKE293 (so in the source); details: HKE293-Human GLP1R/CRE-luc cells, 5 h at 37° C., read-out: EC50 (nM) Assay 2
Method: GLP1R-mediated agonist activity was determined with a cell-based functional assay utilizing a britelite plus luciferase reporter gene assay system. The stable cell line overexpress GLP1R and target response element. The stimulation with GLP1R agonist results in the upregulation of intracellular cAMP, which regulate the activities of cAMP-response element binding protein (CREB) and CREB-Luc. Reagents and equipment used in the assay are listed below, followed by the protocol.
• 1) Cell Line: HKE293-Human GLP1R/CRE-luc • 2) Complete Medium: DMEM+10% FBS+1×Penicillin-Streptomycin+400 μg/mL G418
• a) Seed HKE293-Human GLP1R/CRE-luc cells at 20,000 cells/well into 384 well assay plate (6007680-50, PE) using complete medium and incubate overnight. • b) Prepare 6×compound working solution with Medium. • c) Add 5 μL 6×compound working solution into cell plate, incubate 5 h at 37° C. • d) Add 20 μl britelite plus Luciferase Assay Reagent into each well of 384-well assay plate. • e) Record the luminescence value on Envision plate reader.
as §1
Target sequence in this assay (P43220 24-463): as the sequence (P43220 24-463, species assumed) above
% Activity=(Signalcmpd−SignalAve_VC)/(SignalAve_PC−SignalAve_VC)×100. • 3.2 Calculate EC50 and Plot effect-dose curve of cmpds:
Y=Bottom+(Top−Bottom)/(1+10^((Log EC50−X)*HillSlope)) • X: log of agonist concentration; Y: % Activity.

| EC50 (GLP1R [1]) [nM] | EC50 (GLP1R [2]) [nM] | Structure (SMILES) |
| --- | --- | --- |
| 0.035 | 108 | O=C(O)c1ccc2nc(CN3CCC4(c5cccc(OCc6ccc(C(F)(F)F)cc6F)n5)CC4C3)n(C[C@@H]3CCO3)c2c1 (stereo partly drawn) [Compound 1-8, 2-{[6-(6-{[2-fluoro-4-(trifluoromethyl)phenyl]methoxy}pyridin-2-yl)-3-azabicyclo[4.1.0]heptan-3-yl]methyl}-3-[(2S)-oxetan-2-ylmethyl]-1,3-benzodiazole-5-carboxylic acid] |
| 0.021 | 47.6 | N#Cc1ccc(COc2cccc(C34CCN(Cc5nc6c(F)cc(C(=O)O)cc6n5C[C@@H]5CCO5)CC3C4)n2)c(F)c1 (single isomer, unassigned) [Compound 1-10-B] |
| 2.79 | > 1000 | N#Cc1ccc(COc2cccc(N3C4CCC3CN(Cc3nc5ccc(C(=O)O)cc5n3C[C@@H]3CCO3)C4)c2)c(F)c1 [Compound 2-35, 2-((−8-(3-((4-cyano-2-fluorobenzyl)oxy)phenyl)-3,8-diazabicyclo[3.2.1]octan-3-yl)methyl)-1-(((S)-oxetan-2-yl)methyl)-1H-benzo[d]imidazole-6-carboxylic acid] |
| 0.047 | 31.2 | N#Cc1ccc(COc2cccc(C34CCN(Cc5nc6c(F)cc(C(=O)O)cc6n5C[C@@H]5CCO5)CC3C4)n2)c(F)c1 (stereo partly drawn) [Compound 1-10, 2-((6-(6-((4-cyano-2-fluorobenzyl)oxy)pyridin-2-yl)-3-azabicyclo[4.1.0]heptan-3-yl)methyl)-4-fluoro-1-(((S)-oxetan-2-yl)methyl)-1H-benzo[d]imidazole-6-carboxylic acid] |
| 0.03 | 100 | O=C(O)c1ccc2nc(CN3CCC4(c5cccc(OCc6ccc(Cl)cc6F)n5)CC4C3)n(C[C@@H]3CCO3)c2c1 (stereo partly drawn) [Compound 1-5, 2-((6-(6-((4-chloro-2-fluorobenzyl)oxy)pyridin-2-yl)-3-azabicyclo[4.1.0]heptan-3-yl)methyl)-1-(((S)-oxetan-2-yl)methyl)-1H-benzo[d]imidazole-6-carboxylic acid] |
| 0.029 | 80.8 | N#Cc1ccc(COc2cccc(C34CCN(Cc5nc6ccc(C(=O)O)cc6n5C[C@@H]5CCO5)CC3C4)n2)c(F)c1 (stereo partly drawn) [Compound 1-1, 2-[(6-{6-[(4-cyano-2-fluorophenyl)methoxy]pyridin-2-yl}-3-azabicyclo[4.1.0]heptan-3-yl)methyl]-3-[(2S)-oxetan-2-ylmethyl]-1,3-benzodiazole-5-carboxylic acid] |
| > 4 | > 1000 | N#Cc1ccc(COc2ccnc(N3C4CCC3CN(Cc3nc5ccc(C(=O)O)cc5n3C[C@@H]3CCO3)C4)c2)c(F)c1 [Compound 2-34, 2-((−8-(4-((4-cyano-2-fluorobenzyl)oxy)pyridin-2-yl)-3,8-diazabicyclo[3.2.1]octan-3-yl)methyl)-1-(((S)-oxetan-2-yl)methyl)-1H-benzo[d]imidazole-6-carboxylic acid] |
| – | 22.1 | COc1cc(C(=O)O)cc2c1nc(CN1CCC3(c4nccc(OCc5ccc(C#N)cc5OC(C)C)n4)CC3C1)n2C[C@@H]1CCO1 (stereo partly drawn) [Compound 1-40, 2-((6-(4-((4-cyano-2-isopropoxybenzyl)oxy)pyrimidin-2-yl)-3-azabicyclo[4.1.0]heptan-3-yl)methyl)-4-methoxy-1-(((S)-oxetan-2-yl)methyl)-1H-benzo[d]imidazole-6-carboxylic acid] |
| – | 13.4 | COc1cc(C#N)ccc1COc1cccc(C23CCN(Cc4nc5c(C)cc(C(=O)O)cc5n4C[C@@H]4CCO4)CC2C3)n1 (stereo partly drawn) [Compound 1-18, 2-((6-(6-((4-cyano-2-methoxybenzyl)oxy)pyridin-2-yl)-3-azabicyclo[4.1.0]heptan-3-yl)methyl)-4-methyl-1-(((S)-oxetan-2-yl)methyl)-1H-benzo[d]imidazole-6-carboxylic acid] |
| – | 3.85 | COc1cc(Cl)ccc1COc1ccnc(C23CCN(Cc4nc5c(OC)cc(C(=O)O)cc5n4C[C@@H]4CCO4)CC2C3)n1 (stereo partly drawn) [Compound 1-47, 2-((6-(4-((4-chloro-2-methoxybenzyl)oxy)pyrimidin-2-yl)-3-azabicyclo[4.1.0]heptan-3-yl)methyl)-4-methoxy-1-(((S)-oxetan-2-yl)methyl)-1H-benzo[d]imidazole-6-carboxylic acid] |
| – | 0.3 | CCn1cncc1Cn1c(CN2CCC3(c4cccc(OCc5ccc(C#N)cc5OC)n4)CC3C2)nc2ccc(C(=O)O)cc21 (stereo not drawn) [Compound 1-44, 2-((6-(6-((4-cyano-2-methoxybenzyl)oxy)pyridin-2-yl)-3-azabicyclo[4.1.0]heptan-3-yl)methyl)-1-((1-ethyl-1H-imidazol-5-yl)methyl)-1H-benzo[d]imidazole-6-carboxylic acid] |
| – | 9.67 | COc1cc(C#N)ccc1COc1cccc(C23CCN(Cc4nc5c(C(C)=O)cc(C(=O)O)cc5n4C[C@@H]4CCO4)CC2C3)n1 (stereo partly drawn) [Compound 1-20, 4-acetyl-2-((6-(6-((4-cyano-2-methoxybenzyl)oxy)pyridin-2-yl)-3-azabicyclo[4.1.0]heptan-3-yl)methyl)-1-(((S)-oxetan-2-yl)methyl)-1H-benzo[d]imidazole-6-carboxylic acid] |
| – | 105 | COc1cc(C#N)ccc1COc1nc(C23CCN(Cc4nc5c(OC)cc(C(=O)O)cc5n4C[C@@H]4CCO4)CC2C3)ncc1C (stereo partly drawn) [Compound 1-33, 2-((6-(4-((4-cyano-2-methoxybenzyl)oxy)-5-methylpyrimidin-2-yl)-3-azabicyclo[4.1.0]heptan-3-yl)methyl)-4-methoxy-1-(((S)-oxetan-2-yl)methyl)-1H-benzo[d]imidazole-6-carboxylic acid] |
| 0.028 | 48.7 | N#Cc1ccc(COc2cccc(C34CCN(Cc5nc6ccc(C(=O)O)cc6n5C[C@@H]5CCO5)CC3C4)n2)c(F)c1 (single isomer, unassigned) [Compound 1-1-A] |
| – | 2.6 | COc1cc(C#N)ccc1COc1ccnc(C23CCN(Cc4nc5c(Cl)cc(C(=O)O)cc5n4C[C@@H]4CCO4)CC2C3)n1 (stereo partly drawn) [Compound 1-46, 4-chloro-2-((6-(4-((4-cyano-2-methoxybenzyl)oxy)pyrimidin-2-yl)-3-azabicyclo[4.1.0]heptan-3-yl)methyl)-1-(((S)-oxetan-2-yl)methyl)-1H-benzo[d]imidazole-6-carboxylic acid] |
| – | 11.7 | COc1cc(C#N)ccc1COc1nccc(C23CCN(Cc4nc5ccc(C(=O)O)cc5n4C[C@@H]4CCO4)CC2C3)n1 (stereo partly drawn) [Compound 1-27, 2-((6-(2-((4-cyano-2-methoxybenzyl)oxy)pyrimidin-4-yl)-3-azabicyclo[4.1.0]heptan-3-yl)methyl)-1-(((S)-oxetan-2-yl)methyl)-1H-benzo[d]imidazole-6-carboxylic acid] |
| – | 14.4 | COc1cc(C#N)ccc1COc1cccc(C23CCN(Cc4nc5c(OC(F)(F)F)cc(C(=O)O)cc5n4C[C@@H]4CCO4)CC2C3)n1 (stereo partly drawn) [Compound 1-22, 2-((6-(6-((4-cyano-2-methoxybenzyl)oxy)pyridin-2-yl)-3-azabicyclo[4.1.0]heptan-3-yl)methyl)-1-(((S)-oxetan-2-yl)methyl)-4-(trifluoromethoxy)-1H-benzo[d]imidazole-6-carboxylic acid] |
| – | 0.46 | COc1cc(C#N)ccc1COc1nc(C23CCN(Cc4nc5c(OC)cc(C(=O)O)cc5n4C[C@@H]4CCO4)CC2C3)ccc1F (stereo partly drawn) [Compound 1-28, 2-((6-(6-((4-cyano-2-methoxybenzyl)oxy)-5-fluoropyridin-2-yl)-3-azabicyclo[4.1.0]heptan-3-yl)methyl)-4-methoxy-1-(((S)-oxetan-2-yl)methyl)-1H-benzo[d]imidazole-6-carboxylic acid] |
| – | 132 | COc1cc(C#N)ccc1COc1nc(C23CCN(Cc4nc5ccc(C(=O)O)cc5n4C[C@@H]4CCO4)CC2C3)ncc1F (stereo partly drawn) [Compound 1-31, 2-((6-(4-((4-cyano-2-methoxybenzyl)oxy)-5-fluoropyrimidin-2-yl)-3-azabicyclo[4.1.0]heptan-3-yl)methyl)-1-(((S)-oxetan-2-yl)methyl)-1H-benzo[d]imidazole-6-carboxylic acid] |
